Assay [1] concerns the target T1, Csx1-Crn2.
T1 construct: full length, 563 aa natural fusion; synthetic gene codon-optimised, expressed in E. coli C43 (DE3); N-terminal His tag removed by TEV; V177L in the cloned gene; dimer
Nature of the assay: EMSA with radiolabelled cA4. The format is binding, Marinitoga piezophila. Conditions: pH 7.5, 2 mM MgCl2, 25 °C; Crn2 ring nuclease site (CARF site also present); labelled compound; read-out: apparent KD.

Assay [2] addresses T1, Csx1-Crn2. Nature of the assay: EMSA with radiolabelled cA4. The format is binding, Marinitoga piezophila. Conditions: pH 7.5, 2 mM MgCl2, 25 °C; Crn2 ring nuclease site (CARF site also present); labelled compound; no obvious gel shift, value judged from cA4 cleavage at high protein concentration; discussion gives > 1; read-out: apparent KD.

Read-outs that look alike come from different tables or passages of the source.

In the case of `Nc1ncnc2c1ncn2[C@@H]1O[C@@H]2COP(=O)(O)O[C@H]3[C@@H](O)[C@H](n4cnc5c(N)ncnc54)O[C@@H]3COP(=O)(O)O[C@H]3[C@@H](O)[C@H](n4cnc5c(N)ncnc54)O[C@@H]3COP(=O)(O)O[C@H]3[C@@H](O)[C@H](n4cnc5c(N)ncnc54)O[C@@H]3COP(=O)(O)O[C@H]2[C@H]1O` [cA4], the Kd was around 20 nM on Csx1-Crn2 [1] and around 1000 nM on Csx1-Crn2 [2].
